Test system: CD8-positive HLA-A2402-restrictive CTL clones specific for the ErbB2 p63-71 peptide
Assay: Stimulating activity of treated dendritic cells on proliferation of CTL clone
Assay type: cell-based, human
Settings: HLA-A2402 dendritic cells treated at protein concentration of 100 µg/ml for 3 hours or peptide-pulsed; compared to the non-treated dendritic cells; Fig. 3
Procedure: The dendritic cells, prepared from healthy human peripheral blood monocytes having HLA-A2402 as described above, were cultured with the CHP-ErbB2 suspension, the ErbB2 protein alone, the CHP-CAB suspension, or the CAB protein alone each at a protein concentration of 100 µ g/ml for 3 hours. The cells were washed and then further cultured for 15 hours.
By using these dendritic cells and the ErbB2 p63-71 peptide-pulsed dendritic cells derived from the same individual as stimulating cells, their abilities of stimulation were examined on the aforementioned CD8-positive HLA-A2402-restrictive CTL clones specific for the ErbB2 p63-71 peptide.

## p63-71 peptide: peptide having the 63-71 amino acid sequence of HER2, positive control (TYLPTNASL)
  stimulation and proliferation of the CTL clone: significantly stimulate the CTL clone and induce proliferation

— EP1126023A1, “METHOD FOR INDUCING CELLULAR IMMUNITY AND CELLS WITH INDUCED CELLULAR IMMUNITY” (MITSUBISHI CHEMICAL CORPORATION, priority 1998, dated 2000)
